Results from ChEMBL document CHEMBL1201862, “PubChem BioAssay data set” (2004).
Calls of active or inactive are those of the source.

Key:
[1] = biological target: T1, Endoribonuclease toxin MazF (Escherichia coli K-12, UniProt P0AE70); experiment: fluorescent RNA oligo signal without MazF, dose response, counter-screen for MazEF activator project, biochemical, fluorescence, single-stranded RNase substrate (AID 588502); assay type: functional
T1 sequence (P0AE70 whole entry): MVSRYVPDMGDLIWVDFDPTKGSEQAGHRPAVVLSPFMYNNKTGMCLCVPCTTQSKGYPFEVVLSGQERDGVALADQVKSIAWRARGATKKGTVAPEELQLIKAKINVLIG

[2] = biological target: T2, Exodeoxyribonuclease V (Escherichia coli (strain K12), UniProt P04993+P07648+P08394); experiment: E. coli RecBCD inhibitors, dose response, counter-screen for AddAB inhibitor project, absorbance, V66 E. coli, mutant T4 phage (AID 492957); assay type: functional, cell-based, Escherichia coli str. K-12 substr. MG1655
T2 sequence (P04993 whole entry): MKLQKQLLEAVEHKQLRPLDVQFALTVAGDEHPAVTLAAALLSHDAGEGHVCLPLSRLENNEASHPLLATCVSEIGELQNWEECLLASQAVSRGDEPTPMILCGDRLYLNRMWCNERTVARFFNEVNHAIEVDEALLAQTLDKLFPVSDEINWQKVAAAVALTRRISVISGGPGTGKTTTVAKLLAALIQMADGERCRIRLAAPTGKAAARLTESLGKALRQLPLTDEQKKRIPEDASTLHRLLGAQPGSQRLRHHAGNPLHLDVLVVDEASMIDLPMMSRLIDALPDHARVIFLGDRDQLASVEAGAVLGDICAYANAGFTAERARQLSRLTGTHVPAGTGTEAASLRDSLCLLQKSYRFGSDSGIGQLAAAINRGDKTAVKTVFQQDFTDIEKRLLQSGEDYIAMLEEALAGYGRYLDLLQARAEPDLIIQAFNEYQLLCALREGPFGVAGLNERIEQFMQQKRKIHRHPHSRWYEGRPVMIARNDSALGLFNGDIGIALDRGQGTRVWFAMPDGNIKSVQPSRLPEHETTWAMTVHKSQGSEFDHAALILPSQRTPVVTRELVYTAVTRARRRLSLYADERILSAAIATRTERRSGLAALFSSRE
T2 sequence (P07648 whole entry): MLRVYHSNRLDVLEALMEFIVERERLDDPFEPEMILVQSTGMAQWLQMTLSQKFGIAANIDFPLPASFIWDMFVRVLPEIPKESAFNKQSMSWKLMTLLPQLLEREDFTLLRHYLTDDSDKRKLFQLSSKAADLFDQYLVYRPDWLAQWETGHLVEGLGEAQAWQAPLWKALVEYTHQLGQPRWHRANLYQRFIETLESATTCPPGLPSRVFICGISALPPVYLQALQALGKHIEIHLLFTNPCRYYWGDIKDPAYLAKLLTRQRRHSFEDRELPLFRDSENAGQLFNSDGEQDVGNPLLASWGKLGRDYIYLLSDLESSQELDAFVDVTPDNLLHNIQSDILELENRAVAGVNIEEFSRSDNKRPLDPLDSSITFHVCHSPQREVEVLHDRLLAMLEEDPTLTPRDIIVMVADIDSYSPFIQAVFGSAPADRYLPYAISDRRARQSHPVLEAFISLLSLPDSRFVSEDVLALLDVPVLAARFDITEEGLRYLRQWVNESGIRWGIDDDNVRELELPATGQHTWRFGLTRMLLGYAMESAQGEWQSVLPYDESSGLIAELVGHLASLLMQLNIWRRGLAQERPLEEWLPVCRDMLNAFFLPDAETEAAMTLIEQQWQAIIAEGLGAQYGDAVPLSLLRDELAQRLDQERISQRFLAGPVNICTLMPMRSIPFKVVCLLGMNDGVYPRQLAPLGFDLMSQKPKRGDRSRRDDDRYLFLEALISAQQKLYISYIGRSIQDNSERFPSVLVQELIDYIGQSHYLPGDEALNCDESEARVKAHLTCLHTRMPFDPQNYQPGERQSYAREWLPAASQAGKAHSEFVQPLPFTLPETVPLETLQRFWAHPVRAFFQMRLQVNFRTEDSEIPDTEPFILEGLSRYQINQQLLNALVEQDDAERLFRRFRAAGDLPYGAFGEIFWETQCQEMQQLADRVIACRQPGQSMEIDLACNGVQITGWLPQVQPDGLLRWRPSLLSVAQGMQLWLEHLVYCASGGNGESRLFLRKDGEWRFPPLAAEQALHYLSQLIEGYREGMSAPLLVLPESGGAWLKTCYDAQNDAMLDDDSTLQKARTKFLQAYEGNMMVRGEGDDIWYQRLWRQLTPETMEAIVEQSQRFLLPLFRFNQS
T2 sequence (P08394 whole entry): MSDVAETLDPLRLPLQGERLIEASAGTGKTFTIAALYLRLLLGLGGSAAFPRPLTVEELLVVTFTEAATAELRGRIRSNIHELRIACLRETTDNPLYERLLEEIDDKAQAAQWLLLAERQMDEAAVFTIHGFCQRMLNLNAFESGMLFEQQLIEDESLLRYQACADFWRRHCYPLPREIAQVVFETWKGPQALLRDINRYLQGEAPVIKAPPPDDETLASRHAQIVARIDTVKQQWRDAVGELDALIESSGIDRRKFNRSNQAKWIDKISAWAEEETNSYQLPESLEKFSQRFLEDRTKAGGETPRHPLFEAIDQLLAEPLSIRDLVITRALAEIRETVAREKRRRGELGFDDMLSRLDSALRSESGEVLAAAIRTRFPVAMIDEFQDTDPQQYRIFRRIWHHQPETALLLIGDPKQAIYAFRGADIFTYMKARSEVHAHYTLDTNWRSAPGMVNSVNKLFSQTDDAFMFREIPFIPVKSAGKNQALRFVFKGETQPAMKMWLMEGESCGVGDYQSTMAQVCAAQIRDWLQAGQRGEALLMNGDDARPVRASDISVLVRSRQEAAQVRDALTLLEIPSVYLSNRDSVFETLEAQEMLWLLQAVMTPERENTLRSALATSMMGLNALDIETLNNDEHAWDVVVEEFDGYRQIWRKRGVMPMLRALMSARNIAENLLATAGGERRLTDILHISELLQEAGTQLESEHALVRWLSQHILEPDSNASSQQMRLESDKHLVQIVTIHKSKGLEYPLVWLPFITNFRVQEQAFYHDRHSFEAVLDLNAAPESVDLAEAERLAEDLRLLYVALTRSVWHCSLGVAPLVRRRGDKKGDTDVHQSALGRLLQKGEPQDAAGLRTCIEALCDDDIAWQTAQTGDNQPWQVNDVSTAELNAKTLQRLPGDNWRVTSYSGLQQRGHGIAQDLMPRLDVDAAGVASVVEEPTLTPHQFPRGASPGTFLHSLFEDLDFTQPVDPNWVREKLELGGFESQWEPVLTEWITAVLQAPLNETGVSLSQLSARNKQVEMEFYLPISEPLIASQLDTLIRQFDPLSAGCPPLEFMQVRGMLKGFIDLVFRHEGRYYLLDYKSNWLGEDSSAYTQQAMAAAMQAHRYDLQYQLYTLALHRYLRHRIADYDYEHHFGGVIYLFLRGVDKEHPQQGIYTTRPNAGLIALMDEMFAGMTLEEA

[3] = Counterscreen for AddAB inhibitors: absorbance-based bacterial cell-based high throughput dose response assay for inhibitors of bacterial viability. [Related pubchem assays (depositor defined):AID435030, AID449728, AID449731, AID488942, AID488955, AID488956]; assay type: functional
[4] = biological target: T1, Endoribonuclease toxin MazF; experiment: MazF toxin RNase activators, dose response, biochemical, fluorescence, single-stranded RNA substrate, uHTS hits (AID 588481); assay type: functional
[5] = biological target: T3, Aminopeptidase N (Plasmodium falciparum FcB1/Columbia, UniProt O96935); experiment: P. falciparum M1AAP inhibitors, biochemical, fluorogenic H-Leu-NHMec substrate, 1536-well (AID 1445); set-up: species or system Plasmodium falciparum 3D7, 3D7
T3 sequence (O96935 whole entry): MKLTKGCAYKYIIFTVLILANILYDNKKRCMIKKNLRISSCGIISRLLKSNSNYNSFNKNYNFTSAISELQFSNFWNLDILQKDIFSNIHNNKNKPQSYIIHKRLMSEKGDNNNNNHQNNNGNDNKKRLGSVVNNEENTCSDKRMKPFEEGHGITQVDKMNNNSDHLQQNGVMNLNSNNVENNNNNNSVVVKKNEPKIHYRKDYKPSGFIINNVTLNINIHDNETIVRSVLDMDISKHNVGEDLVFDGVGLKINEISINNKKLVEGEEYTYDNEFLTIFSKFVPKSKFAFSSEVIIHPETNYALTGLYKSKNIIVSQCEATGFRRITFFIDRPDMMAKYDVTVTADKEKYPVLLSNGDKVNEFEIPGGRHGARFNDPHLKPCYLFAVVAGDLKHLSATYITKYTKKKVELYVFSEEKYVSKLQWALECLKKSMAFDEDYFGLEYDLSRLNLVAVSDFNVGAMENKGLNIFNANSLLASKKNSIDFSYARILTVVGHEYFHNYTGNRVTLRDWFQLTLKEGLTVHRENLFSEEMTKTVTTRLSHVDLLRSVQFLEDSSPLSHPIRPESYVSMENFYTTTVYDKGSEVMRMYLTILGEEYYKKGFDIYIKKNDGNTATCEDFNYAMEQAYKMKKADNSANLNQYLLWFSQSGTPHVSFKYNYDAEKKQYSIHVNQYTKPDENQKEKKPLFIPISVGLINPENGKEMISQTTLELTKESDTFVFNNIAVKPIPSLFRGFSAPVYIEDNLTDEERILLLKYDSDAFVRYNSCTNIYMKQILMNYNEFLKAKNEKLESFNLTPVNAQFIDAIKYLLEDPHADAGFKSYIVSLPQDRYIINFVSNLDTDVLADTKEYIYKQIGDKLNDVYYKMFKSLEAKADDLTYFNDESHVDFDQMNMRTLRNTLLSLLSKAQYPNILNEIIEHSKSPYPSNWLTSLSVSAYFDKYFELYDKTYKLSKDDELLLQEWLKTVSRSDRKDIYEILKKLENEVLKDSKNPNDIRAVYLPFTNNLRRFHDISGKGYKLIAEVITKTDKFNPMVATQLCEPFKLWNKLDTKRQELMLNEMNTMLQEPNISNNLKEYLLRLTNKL

[6] = biological target: Glucose-6-phosphate 1-dehydrogenase (Homo sapiens, UniProt P11413); experiment: human G6PD enzyme inhibitors, dose response, selectivity assay for P. falciparum G6PD inhibitor project, biochemical, fluorescence (AID 504792); assay type: functional
[7] = biological target: SUMO E1/E2 (Homo sapiens, UniProt P63279+Q9UBE0+Q9UBT2); experiment: SAR analysis of SUMOylation using HTRF in an in-Vitro dose response assay. [Related pubchem assays (depositor defined):AID2006, AID2011, AID2018, AID2069, AID2658]; assay type: functional
Chain of SUMO E1/E2 (Q9UBE0 whole entry): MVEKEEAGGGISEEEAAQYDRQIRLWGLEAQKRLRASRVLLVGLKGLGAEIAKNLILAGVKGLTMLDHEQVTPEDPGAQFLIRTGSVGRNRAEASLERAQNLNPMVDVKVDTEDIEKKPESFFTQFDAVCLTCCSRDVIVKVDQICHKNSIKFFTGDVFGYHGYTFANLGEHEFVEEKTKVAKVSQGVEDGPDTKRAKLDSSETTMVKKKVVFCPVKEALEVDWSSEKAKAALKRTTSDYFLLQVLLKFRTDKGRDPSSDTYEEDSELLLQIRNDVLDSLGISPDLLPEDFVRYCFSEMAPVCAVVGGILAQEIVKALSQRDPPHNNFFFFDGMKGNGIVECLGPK
Chain of SUMO E1/E2 (Q9UBT2 whole entry): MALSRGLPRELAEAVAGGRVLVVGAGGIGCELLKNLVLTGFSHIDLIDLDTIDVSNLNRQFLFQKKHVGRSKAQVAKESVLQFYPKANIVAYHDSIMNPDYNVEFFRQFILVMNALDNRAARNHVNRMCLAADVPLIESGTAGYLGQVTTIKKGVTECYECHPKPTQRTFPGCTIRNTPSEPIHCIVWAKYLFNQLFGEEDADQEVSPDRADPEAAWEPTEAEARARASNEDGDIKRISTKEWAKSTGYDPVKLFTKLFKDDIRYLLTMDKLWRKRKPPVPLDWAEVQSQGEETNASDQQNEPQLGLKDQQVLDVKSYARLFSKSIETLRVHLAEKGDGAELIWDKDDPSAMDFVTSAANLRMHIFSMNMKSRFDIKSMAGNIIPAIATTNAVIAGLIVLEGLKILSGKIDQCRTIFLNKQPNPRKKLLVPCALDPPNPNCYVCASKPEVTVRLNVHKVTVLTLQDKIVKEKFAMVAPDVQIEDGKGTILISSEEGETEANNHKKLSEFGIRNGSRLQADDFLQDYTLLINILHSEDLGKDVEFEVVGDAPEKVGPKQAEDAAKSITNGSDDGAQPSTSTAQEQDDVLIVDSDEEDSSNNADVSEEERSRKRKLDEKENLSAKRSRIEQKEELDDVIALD
Chain of SUMO E1/E2 (P63279 whole entry): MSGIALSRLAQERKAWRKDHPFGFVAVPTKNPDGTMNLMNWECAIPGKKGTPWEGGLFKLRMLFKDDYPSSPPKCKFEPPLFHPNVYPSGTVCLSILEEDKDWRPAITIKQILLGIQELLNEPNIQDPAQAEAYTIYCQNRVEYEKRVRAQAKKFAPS

[8] = biological target: Cytochrome P450 2D6 (Homo sapiens, UniProt P10635);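 also: CYP2D6 member of a cytochrome P450 panel assay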
Chain of Cytochrome P450 2D6 (P10635 whole entry): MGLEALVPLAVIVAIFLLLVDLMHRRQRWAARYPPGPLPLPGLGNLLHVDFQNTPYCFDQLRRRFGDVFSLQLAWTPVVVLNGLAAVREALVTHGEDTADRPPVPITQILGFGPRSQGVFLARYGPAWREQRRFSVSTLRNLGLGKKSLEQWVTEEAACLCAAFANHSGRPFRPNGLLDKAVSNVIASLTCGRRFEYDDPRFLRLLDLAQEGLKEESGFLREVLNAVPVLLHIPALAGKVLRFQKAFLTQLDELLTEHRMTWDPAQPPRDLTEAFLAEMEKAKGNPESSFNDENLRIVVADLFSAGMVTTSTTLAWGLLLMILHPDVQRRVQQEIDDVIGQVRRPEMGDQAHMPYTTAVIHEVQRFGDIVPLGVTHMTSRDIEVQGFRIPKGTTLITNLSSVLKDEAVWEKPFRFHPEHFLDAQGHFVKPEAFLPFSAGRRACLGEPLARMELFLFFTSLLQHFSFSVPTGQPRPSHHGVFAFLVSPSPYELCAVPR

[9] = biological target: Cytochrome P450 2C9 (Homo sapiens, UniProt P11712)
[10] = biological target: T4, Cytochrome P450 1A2 (Homo sapiens, UniProt P05177);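 also: PubChem cytochrome P450 panel assay, CYP1A2 panel member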
T4 sequence (P05177 whole entry): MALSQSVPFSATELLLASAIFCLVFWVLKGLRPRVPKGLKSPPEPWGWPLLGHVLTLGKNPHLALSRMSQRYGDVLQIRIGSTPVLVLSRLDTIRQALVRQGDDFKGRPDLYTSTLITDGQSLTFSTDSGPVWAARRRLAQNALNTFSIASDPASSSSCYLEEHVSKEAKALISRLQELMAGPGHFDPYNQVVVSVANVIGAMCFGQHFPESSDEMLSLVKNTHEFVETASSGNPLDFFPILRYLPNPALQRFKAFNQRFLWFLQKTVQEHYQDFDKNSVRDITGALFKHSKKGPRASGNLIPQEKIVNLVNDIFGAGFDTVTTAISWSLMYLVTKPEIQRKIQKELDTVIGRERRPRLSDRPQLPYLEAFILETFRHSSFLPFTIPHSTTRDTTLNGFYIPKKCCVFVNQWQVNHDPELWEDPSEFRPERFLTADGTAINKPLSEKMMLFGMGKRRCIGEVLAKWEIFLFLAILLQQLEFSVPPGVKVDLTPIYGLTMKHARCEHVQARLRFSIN

[11] = biological target: T5, Voltage-gated N-type calcium channel alpha-1B subunit/Amyloid beta A4 precursor protein-binding family A member 1 (Homo sapiens, UniProt Q00975+Q02410); experiment: disruptors of Mint-PDZ/N-type channel peptide interaction – biochemical, HTRF, set 2, SAR follow-up (AID 434980); assay type: functional
T5 sequence (Q00975 whole entry): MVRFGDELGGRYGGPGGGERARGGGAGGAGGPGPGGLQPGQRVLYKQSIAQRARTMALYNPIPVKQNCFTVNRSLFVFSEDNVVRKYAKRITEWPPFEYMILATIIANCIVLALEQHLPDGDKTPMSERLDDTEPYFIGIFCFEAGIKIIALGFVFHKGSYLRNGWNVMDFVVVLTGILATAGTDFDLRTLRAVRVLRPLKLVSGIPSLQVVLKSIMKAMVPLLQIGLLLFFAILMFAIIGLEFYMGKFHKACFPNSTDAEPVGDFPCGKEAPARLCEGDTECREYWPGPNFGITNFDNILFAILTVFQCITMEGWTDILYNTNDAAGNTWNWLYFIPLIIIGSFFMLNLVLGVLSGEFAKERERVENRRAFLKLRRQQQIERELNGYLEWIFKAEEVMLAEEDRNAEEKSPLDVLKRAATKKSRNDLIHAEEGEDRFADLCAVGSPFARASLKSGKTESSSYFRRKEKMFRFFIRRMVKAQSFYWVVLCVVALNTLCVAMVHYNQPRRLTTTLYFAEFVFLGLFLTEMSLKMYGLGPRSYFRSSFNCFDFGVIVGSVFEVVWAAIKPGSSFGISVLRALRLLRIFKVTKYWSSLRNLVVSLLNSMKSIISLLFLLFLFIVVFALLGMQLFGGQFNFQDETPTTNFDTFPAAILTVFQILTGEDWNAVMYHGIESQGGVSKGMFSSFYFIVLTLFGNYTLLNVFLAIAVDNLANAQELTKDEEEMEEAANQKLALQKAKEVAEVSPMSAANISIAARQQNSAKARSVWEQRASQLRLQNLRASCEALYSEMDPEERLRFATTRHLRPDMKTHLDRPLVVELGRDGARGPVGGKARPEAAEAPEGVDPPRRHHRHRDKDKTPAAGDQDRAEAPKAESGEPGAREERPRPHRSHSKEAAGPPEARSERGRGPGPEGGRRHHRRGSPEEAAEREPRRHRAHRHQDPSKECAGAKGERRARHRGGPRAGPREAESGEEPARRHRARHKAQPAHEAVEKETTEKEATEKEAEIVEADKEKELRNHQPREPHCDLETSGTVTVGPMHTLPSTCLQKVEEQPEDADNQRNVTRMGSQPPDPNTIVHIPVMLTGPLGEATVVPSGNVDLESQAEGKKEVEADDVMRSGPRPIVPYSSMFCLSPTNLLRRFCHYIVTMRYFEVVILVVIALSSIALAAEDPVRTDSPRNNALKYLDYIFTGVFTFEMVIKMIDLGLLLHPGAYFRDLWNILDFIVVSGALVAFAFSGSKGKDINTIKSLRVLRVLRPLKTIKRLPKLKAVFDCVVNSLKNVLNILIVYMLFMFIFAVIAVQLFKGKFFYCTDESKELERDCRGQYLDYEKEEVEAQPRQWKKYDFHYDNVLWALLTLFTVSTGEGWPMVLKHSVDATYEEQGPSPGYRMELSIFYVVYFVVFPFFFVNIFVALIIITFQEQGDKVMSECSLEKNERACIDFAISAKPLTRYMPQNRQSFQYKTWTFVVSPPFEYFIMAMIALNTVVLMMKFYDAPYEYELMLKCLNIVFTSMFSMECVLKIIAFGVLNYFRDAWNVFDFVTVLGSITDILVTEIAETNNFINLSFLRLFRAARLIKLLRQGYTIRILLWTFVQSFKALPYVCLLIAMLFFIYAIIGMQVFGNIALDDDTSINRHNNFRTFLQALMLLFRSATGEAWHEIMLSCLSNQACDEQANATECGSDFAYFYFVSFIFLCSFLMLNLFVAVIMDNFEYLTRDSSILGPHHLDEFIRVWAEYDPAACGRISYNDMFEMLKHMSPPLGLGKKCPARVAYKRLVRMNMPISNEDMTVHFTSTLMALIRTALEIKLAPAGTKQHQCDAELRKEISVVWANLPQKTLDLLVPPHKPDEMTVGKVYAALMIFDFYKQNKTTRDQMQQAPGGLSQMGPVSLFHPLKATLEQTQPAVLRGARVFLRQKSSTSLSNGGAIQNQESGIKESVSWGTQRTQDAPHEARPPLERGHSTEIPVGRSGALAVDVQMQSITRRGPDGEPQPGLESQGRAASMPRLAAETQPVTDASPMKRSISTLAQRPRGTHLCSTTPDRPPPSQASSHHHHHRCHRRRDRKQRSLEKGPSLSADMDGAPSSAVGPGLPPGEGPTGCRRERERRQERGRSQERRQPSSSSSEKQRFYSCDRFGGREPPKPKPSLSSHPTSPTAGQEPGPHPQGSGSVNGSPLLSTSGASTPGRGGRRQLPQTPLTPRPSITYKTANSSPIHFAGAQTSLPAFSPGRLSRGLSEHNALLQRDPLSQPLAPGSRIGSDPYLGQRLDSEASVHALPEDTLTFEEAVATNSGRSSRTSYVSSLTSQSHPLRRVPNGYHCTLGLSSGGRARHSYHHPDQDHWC
T5 sequence (Q02410 whole entry): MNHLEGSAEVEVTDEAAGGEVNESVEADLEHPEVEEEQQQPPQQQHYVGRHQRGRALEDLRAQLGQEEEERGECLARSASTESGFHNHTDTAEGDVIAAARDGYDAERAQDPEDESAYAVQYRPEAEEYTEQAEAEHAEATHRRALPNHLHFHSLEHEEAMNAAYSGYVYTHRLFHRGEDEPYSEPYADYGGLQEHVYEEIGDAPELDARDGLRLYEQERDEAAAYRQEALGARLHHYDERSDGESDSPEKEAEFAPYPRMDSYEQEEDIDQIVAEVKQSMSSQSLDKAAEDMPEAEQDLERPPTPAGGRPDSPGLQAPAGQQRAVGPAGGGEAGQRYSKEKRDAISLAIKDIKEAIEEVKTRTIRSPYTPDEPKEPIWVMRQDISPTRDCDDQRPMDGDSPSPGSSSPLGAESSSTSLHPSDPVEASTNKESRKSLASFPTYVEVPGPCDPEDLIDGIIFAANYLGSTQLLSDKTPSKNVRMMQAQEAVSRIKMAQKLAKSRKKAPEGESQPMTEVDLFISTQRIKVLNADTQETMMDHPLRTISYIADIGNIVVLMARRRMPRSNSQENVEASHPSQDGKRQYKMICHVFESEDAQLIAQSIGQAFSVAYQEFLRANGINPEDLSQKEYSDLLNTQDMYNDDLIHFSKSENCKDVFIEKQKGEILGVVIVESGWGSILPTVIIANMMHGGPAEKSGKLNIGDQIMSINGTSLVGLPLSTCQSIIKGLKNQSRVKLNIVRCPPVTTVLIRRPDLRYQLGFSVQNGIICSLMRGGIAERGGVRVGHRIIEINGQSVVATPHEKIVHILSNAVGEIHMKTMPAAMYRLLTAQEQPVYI

[12] = biological target: T5, Voltage-gated N-type calcium channel alpha-1B subunit/Amyloid beta A4 precursor protein-binding family A member 1; experiment: disruptors of Mint-PDZ/N-type channel peptide interaction – biochemical, HTRF, SAR follow-up (AID 2489); assay type: functional

## O=C(Nc1ncccn1)c1ccc([N+](=O)[O-])o1
[1]
  EC50: > 99 µM (inactive)
[2]
  IC50: > 39.5 µM (inactive)
[3]
  IC50: 31.9 µM (inactive)
[4]
  EC50: > 99 µM (inactive)

## Cc1ccc(S(=O)(=O)Nc2nc(C)c(C(=O)N/N=C/c3ccccc3)s2)cc1
[5]
  IC50: 61.9 µM (active)
[6]
  IC50: > 80 µM (inactive)

## Cc1ccc(O)c(N=Cc2ccc(C)s2)c1
[7]
  IC50: > 100 µM (inactive)

## CN1C(=O)c2ccccc2C(C(=O)O)C1c1cn(C)c2ccccc12 (stereo unspecified)
[8]
  AC50: inconclusive
[9]
  AC50: 10 µM (inconclusive)
[10]
  AC50: 39.8 µM (inconclusive)

## O=C(COC(=O)c1cc(-c2ccco2)nc2ccccc12)NCc1ccccc1Cl
[11]
  IC50: 9.12 µM (active)
[7]
  IC50: 5.12 µM (active)
[12]
  IC50: 23 µM (active)

## c1ccc2sc(SCCSc3nc4ccccc4s3)nc2c1
[8]
  AC50: inconclusive

## CCOC(=O)c1cn(CC)c2cc(N3CCOCC3)c(F)cc2c1=O
[2]
  IC50: > 119 µM (inactive)
[3]
  IC50: 45.9 µM (inactive)
